Data taken from patent publication US7816328B2, “Substituted fused heterocyclic C-glycosides” (Janssen Pharmaceutica NV, priority 2003, dated 2010).

What was measured:
human SGLT2 = target: T1, human SGLT2 (Homo sapiens, UniProt P31639); experiment: Cell-based assay for sodium-dependent glucose transport (14C-AMG uptake), CHO-K1 cells stably expressing human SGLT2; conditions: Na-dependent 14C-AMG uptake; for IC50: read-out: CHOK-SGLT2 IC50; for inhibition at 10 µM: read-out: CHOK-SGLT2 % Inh at 10 uM
T1 construct: expressed in transfected cells; host or cells: CHO-K1
T1 sequence (P31639 1-672): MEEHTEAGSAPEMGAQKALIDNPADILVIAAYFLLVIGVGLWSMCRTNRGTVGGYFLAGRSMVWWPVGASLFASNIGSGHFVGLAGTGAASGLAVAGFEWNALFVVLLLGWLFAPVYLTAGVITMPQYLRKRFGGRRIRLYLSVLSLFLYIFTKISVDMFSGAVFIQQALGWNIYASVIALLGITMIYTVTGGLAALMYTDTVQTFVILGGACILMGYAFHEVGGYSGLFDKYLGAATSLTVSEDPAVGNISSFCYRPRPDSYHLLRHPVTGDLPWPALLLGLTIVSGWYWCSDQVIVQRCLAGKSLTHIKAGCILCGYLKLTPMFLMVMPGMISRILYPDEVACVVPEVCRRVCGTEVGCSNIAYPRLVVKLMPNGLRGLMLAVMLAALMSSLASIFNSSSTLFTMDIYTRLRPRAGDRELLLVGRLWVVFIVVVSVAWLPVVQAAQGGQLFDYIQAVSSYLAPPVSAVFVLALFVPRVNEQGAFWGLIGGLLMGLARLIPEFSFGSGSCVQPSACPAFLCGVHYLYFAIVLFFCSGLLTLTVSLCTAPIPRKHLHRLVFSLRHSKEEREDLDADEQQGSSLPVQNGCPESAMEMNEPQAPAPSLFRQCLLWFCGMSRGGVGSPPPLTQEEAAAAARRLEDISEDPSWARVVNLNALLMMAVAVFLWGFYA
Protocol: (§1) Cloning of the human SGLT1 and human SGLT2 cDNAs and construction of the mammalian expression vector: The human SGLT1 cDNA (Genbank M24847) was cloned from human small intestine. Human SGLT2 cDNA (Genbank M95549) was cloned from human kidney. Both full cDNAs were subcloned into pcDNA and sequenced to verify the integrity of the construct.
(§2) Generation of CHO-K1 cells stably expressing human SGLT1 or human SGLT2: Transfection of CHO-K1 cells was performed using DMRIE-C reagent (Life Technologies, Gaithersburg, Md.). Transfectants were then selected in the presence of the antibiotic G418 (Gibco-BRL, Grand Island, N.Y.) at 400 μg/ml. Individual clones were then characterized using the functional assay described below.
(§3) Cell-based assay for sodium-dependent glucose transport: Cell lines stably expressing human SGLT1 or SGLT2 were then used for functional analysis of Na+-dependent glucose uptake. Briefly, cells were plated at a density of 65,000 cells per well in a 96-well plate and allowed to grow for 48 hours. Cells were subsequently washed one time with Assay Buffer (50 mM HEPES pH 7.4, 20 mM Tris, 5 mM KCl, 1 mM MgCl2, 1 mM CaCl2 and 137 mM NaCl) and treated with compound in the absence or presence of NaCl for 15 minutes. Cells were then labeled with ^14C-α-methylglucopyranoside (AMG, Sigma, St. Louis, Mo.) a non-metabolizable glucose analog specific for sodium-dependent glucose transporters as previously described (Peng, H. and Lever J. E. Post-transcriptional regulation of Na^+/glucose cotransporter (SGLT1) gene expression in LLC-PK1 cells. J Biol Chem 1995; 270:20536-20542). After 2 hours the labelled cells were washed three times with ice-cold PBS. After aspiration, cells were solubilized using Microscint 20 (Packard, Meriden, Conn.) and Na-dependent ^14C-AMG uptake was quantified by measuring radioactivity.
(§4) Plates were counted in a TopCount (Packard, Meriden, Conn.). Results are reported as the % inhibition or IC50 value from a representative experiment. Variability for the functional assay was typically within 20%.

human SGLT1 = target: T2, human SGLT1 (Homo sapiens, UniProt P13866); experiment: Cell-based assay for sodium-dependent glucose transport (14C-AMG uptake), CHO-K1 cells stably expressing human SGLT1; conditions: Na-dependent 14C-AMG uptake
T2 construct: expressed in transfected cells; host or cells: CHO-K1
T2 sequence (P13866 1-664): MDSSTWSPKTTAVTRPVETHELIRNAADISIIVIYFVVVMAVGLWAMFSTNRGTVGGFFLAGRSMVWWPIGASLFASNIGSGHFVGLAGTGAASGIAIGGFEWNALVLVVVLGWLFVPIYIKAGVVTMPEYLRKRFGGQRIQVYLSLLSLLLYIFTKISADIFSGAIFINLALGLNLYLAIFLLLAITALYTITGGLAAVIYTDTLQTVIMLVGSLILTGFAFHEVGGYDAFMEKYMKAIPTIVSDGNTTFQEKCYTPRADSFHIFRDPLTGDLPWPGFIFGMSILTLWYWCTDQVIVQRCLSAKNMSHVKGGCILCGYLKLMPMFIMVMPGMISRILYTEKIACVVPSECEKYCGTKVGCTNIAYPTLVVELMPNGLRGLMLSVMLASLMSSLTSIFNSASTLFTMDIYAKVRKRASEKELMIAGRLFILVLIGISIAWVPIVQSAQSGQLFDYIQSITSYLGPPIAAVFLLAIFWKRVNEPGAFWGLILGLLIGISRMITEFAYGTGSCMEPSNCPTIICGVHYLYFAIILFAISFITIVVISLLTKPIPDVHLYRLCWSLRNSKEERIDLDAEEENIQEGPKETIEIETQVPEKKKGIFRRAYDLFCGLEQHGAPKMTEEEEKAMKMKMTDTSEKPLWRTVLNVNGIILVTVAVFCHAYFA
Protocol: as §1, §2, §3, §4

COc1ccc(Cc2c[nH]c3ccc([C@@H]4O[C@H](CO)[C@@H](O)[C@H](O)[C@H]4O)cc23)cc1 [Example 2, 5-(β-D-Glucopyranosyl)-3-(4-methoxybenzyl)-1H-indole]
IC50 (human SGLT2): 1.39 ± 0.067 µM
CHOK-SGLT1 IC50 (uM) (human SGLT1): inactive

CCc1ccc(Cc2c[nH]c3cccc([C@@H]4O[C@H](CO)[C@@H](O)[C@H](O)[C@H]4O)c23)cc1 [Example 4, 3-(4-Ethylbenzyl)-4-(β-D-glucopyranosyl)-1H-indole]
inhibition at 10 µM (human SGLT2): 12%
CHOK-SGLT1 IC50 (uM) (human SGLT1): inactive

COc1ccc(CCc2c[nH]c3ccc([C@@H]4O[C@H](CO)[C@@H](O)[C@H](O)[C@H]4O)cc23)cc1 [Example 3, 5-(β-D-Glucopyranosyl)-3-[2-(4-methoxyphenyl)-ethyl]-1H-indole]
inhibition at 10 µM (human SGLT2): 60%
CHOK-SGLT1 IC50 (uM) (human SGLT1): inactive

CCc1ccc(Cc2c[nH]c3ccc([C@@H]4O[C@H](CO)[C@@H](O)[C@H](O)[C@H]4O)cc23)cc1 [Example 1, 3-(4-Ethylbenzyl)-5-(β-D-glucopyranosyl)-1H-indole]
IC50 (human SGLT2): 0.132 ± 0.024 µM
CHOK-SGLT1 IC50 (uM) (human SGLT1): inactive
